Test results published in ChEMBL document CHEMBL1828583, “Discovery process and pharmacological characterization of a novel dual orexin 1 and orexin 2 receptor antagonist useful for treatment of sleep disorders” (Bioorg Med Chem Lett, 2011).

Columns and labels:
Rattus norvegicus [1] = assay: Hypnotic activity in CD rat Circadian time model assessed as rapid eye movement sleep at 10 mg/kg, po administered during active phase measured from starting time CT18 (reference value: 3.22 +/- 0.73 mins); assay type: functional
Rattus norvegicus [2] = assay: Hypnotic activity in CD rat Circadian time model assessed as awake period at 10 mg/kg, po administered during active phase measured from starting time CT18 (reference value: 218 +/- 11.32 mins); assay type: functional
[3] = Cmax in CD rat at 1 mg/kg, iv and 3 mg/kg, po; assay type: ADME, organism-based; settings: in vivo
Rattus norvegicus [4] = assay: Hypnotic activity in po dosed CD rat Circadian time model assessed as rapid eye movement sleep administered during active phase measured from starting time CT18; assay type: functional, organism-based
Rattus norvegicus [5] = assay: Hypnotic activity in CD rat Circadian time model assessed as non-rapid eye movement sleep at 3 mg/kg, po administered during active phase measured from starting time CT18 (reference value: 78.1 +/- 11.3 mins); assay type: functional
Rattus norvegicus [6] = assay: Hypnotic activity in CD rat Circadian time model assessed as non-rapid eye movement latency period at 30 mg/kg, po administered during active phase measured from starting time CT18 (reference value: 46.1 +/- 10.0 mins); assay type: functional
Orexin receptor type 2 = target: T1, Orexin receptor type 2 (Homo sapiens, UniProt O43614); assay: Displacement of [3H]almorexant from recombinant human OX2R expressed in CHO cells; assay type: cell-based
T1 sequence (O43614 whole entry): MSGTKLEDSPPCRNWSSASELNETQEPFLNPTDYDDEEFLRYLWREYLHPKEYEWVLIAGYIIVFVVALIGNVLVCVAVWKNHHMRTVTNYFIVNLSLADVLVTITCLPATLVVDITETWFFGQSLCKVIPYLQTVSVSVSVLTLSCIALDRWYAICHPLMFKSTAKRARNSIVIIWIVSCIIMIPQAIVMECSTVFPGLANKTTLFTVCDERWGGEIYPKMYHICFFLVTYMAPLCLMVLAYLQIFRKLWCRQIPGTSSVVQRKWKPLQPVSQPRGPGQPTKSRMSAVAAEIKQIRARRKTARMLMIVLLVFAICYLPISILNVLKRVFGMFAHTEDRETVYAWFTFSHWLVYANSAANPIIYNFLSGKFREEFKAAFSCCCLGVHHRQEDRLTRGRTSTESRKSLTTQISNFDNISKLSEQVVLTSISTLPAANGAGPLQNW

Rattus norvegicus [7] = assay: Hypnotic activity in po dosed CD rat Circadian time model assessed as total sleep time measured during active phase after 5 hrs; assay type: functional, organism-based
[8] = Volume of distribution at steady state in CD rat at 1 mg/kg, iv and 3 mg/kg, po; assay type: ADME, organism-based; settings: in vivo, read-out: Vdss
Rattus norvegicus [9] = assay: Neurotoxicity in CD rat assessed as impairment of motor coordination at 1 to 10 mg/kg, po by rotarod test in presence of 1 g/kg, ip ethanol; assay type: toxicity, organism-based; design: dose 1-10 mg/kg, route oral; settings: in vivo
[10] = Plasma clearance in CD rat at 1 mg/kg, iv and 3 mg/kg, po; assay type: ADME, organism-based
Rattus norvegicus [11] = assay: Hypnotic activity in CD rat Circadian time model assessed as non-rapid eye movement latency period at 3 mg/kg, po administered during active phase measured from starting time CT18 (reference value: 46.1 +/- 10.0 mins); assay type: functional
Rattus norvegicus [12] = assay: Hypnotic activity in CD rat Circadian time model assessed as rapid eye movement latency period at 10 mg/kg, po administered during active phase measured from starting time CT18 (reference value: 146.3 +/- 54.2 mins); assay type: functional
Rattus norvegicus [13] = assay: Hypnotic activity in CD rat Circadian time model assessed as rapid eye movement latency period at 3 mg/kg, po administered during active phase measured from starting time CT18 (reference value: 146.3 +/- 54.2 mins); assay type: functional
Rattus norvegicus [14] = assay: Hypnotic activity in CD rat Circadian time model assessed as rapid eye movement latency period at 30 mg/kg, po administered during active phase measured from starting time CT18 (reference value: 146.3 +/- 54.2 mins); assay type: functional
Rattus norvegicus [15] = assay: Hypnotic activity in CD rat Circadian time model assessed as total sleep time at 10 mg/kg, po administered during active phase (reference value: 81 +/- 11 mins); assay type: functional
Rattus norvegicus [16] = assay: Hypnotic activity in po dosed CD rat Circadian time model assessed as non-rapid eye movement sleep administered during active phase measured from starting time CT18; assay type: functional, organism-based
[17] = target: T2, Orexin/Hypocretin receptor type 1 (Rattus norvegicus, UniProt P56718); assay: Antagonist activity at recombinant rat OX1R expressed in CHO cells by FLIPR calcium based functional assay; assay type: cell-based
T2 sequence (P56718 whole entry): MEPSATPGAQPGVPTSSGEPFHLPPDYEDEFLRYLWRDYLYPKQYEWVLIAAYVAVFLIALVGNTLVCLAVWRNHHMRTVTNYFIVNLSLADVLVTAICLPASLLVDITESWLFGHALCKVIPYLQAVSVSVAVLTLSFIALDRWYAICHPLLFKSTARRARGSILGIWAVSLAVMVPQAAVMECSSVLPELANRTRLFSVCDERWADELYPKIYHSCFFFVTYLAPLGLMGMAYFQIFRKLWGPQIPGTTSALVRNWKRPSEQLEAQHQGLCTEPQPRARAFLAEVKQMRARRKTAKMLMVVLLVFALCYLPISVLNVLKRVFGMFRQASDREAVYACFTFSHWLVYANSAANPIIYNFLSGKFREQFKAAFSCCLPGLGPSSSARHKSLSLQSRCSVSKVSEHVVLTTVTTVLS

[18] = Ratio of drug level in brain to blood in CD rat at 1 mg/kg, iv after 1 hrs; assay type: ADME, organism-based; design: dose 1 mg/kg, route intravenous; settings: read-out: BBR
Rattus norvegicus [19] = assay: Hypnotic activity in CD rat Circadian time model assessed as non-rapid eye movement latency period at 10 mg/kg, po administered during active phase measured from starting time CT18 (reference value: 46.1 +/- 10.0 mins); assay type: functional
[20] = Fraction unbound in CD rat brain at 1 mg/kg, iv after 1 hrs; assay type: ADME, organism-based; design: dose 1 mg/kg, route intravenous
Rattus norvegicus [21] = assay: Hypnotic activity in CD rat Circadian time model assessed as non-rapid eye movement sleep at 10 mg/kg, po administered during active phase measured from starting time CT18 (reference value: 78.1 +/- 11.3 mins); assay type: functional
Rattus norvegicus [22] = assay: Hypnotic activity in CD rat Circadian time model assessed as rapid eye movement sleep at 3 mg/kg, po administered during active phase measured from starting time CT18 (reference value: 3.22 +/- 0.73 mins); assay type: functional
Rattus norvegicus [23] = assay: Hypnotic activity in CD rat Circadian time model assessed as rapid eye movement sleep at 30 mg/kg, po administered during active phase measured from starting time CT18 (reference value: 3.22 +/- 0.73 mins); assay type: functional
Rattus norvegicus [24] = assay: In vivo antagonist activity at OX1R in CD rat assessed as reduction of OX-A induced grooming dosed orally 3 hrs before OX-A injection measured after 1 hrs; assay type: functional, organism-based

## Cc1nc(C(=O)N2CCCC[C@H]2CNC(=O)c2cccc3occc23)c(-c2ccc(F)cc2)s1 [SB-649868]
Rattus norvegicus [1]
  Time: 17.7 min
Rattus norvegicus [2]
  Time: 117 min
[3]
  Cmax: 333 ng/mL
Rattus norvegicus [4]
  Activity: Dose-dependent effect
Rattus norvegicus [5]
  Time: 99.3 min
Rattus norvegicus [6]
  Time: 8.3 min
Orexin receptor type 2
  Ki: 1.29 nM
Rattus norvegicus [7]
  Activity: Dose-dependent effect
[8]
  Vd: 1.1 L/kg
Rattus norvegicus [9]
  Activity: Non-toxic
[10]
  clearance: 24 mL/min/kg
Rattus norvegicus [11]
  Time: 19 min
Rattus norvegicus [12]
  Time: 26.6 min
Rattus norvegicus [13]
  Time: 30.1 min
Rattus norvegicus [14]
  Time: 13.8 min
Rattus norvegicus [15]
  Time: 182 min
Rattus norvegicus [16]
  Activity: Dose-dependent effect
[17]
  Ki: 0.117 nM
[18]
  Kp at 1 h: 0.1
Rattus norvegicus [19]
  Time: 11.6 min
[20]
  fraction unbound at 1 h: 0.0528
Rattus norvegicus [21]
  Time: 165.2 min
Rattus norvegicus [22]
  Time: 6.5 min
Rattus norvegicus [23]
  Time: 24.1 min
Rattus norvegicus [24]
  Activity: Dose-dependent effect
